Measurements reported in US4599362A, “2-aryl-ethyl ether derivatives and insecticidal and acaricidal agents containing said derivatives” (priority 1980, dated 1986).
Where two headings read alike, the source gives them in different places.

How the values were obtained:
[1] = tested on: resistant green rice leafhopper (collected at Nakagawara); assay: Test 3: Effect on Resistant Green Rice Leafhopper; assay type: in vivo, Nephotettix cincticeps Uhler; details: Nephotettix cincticeps, 24 h, read-out: Mortality (%) Green Rice Leafhopper Collected at Nakagawara
Protocol: (§1) To a mixture of 20 parts of the compound of the present invention and 20 parts of Sorpol SM-200 (registered trademark for the product supplied by Toho Chemical Industrial Co., Ltd.) was added 60 parts of xylol, and the mixture was sufficiently blended. The obtained emulsifiable concentrate was diluted at a predetermined concentration with distilled water, and the obtained dilution was used.
(§2) Seedlings (having 2 to 3 leaves) of paddy rice were hydroponically cultured in a pot having a diameter of 5 cm. A chemical dilution having a concentration of 100 or 20 ppm, prepared in the same manner as described in Test 1, was applied with a sprayer at a rate of 3 ml per pot. The treated seedlings were air-dried and covered with a metal net cylinder, and female adults of resistant green rice leafhopper (collected at Nakagawara) and sensitive green rice leafhopper (collected at Chigasaki) were set, respectively, free in the pot at a density of 10 adults per pot. After of 24 hours, the numbers of killed and living adults were counted and the mortality was calculated. The test was made on three pots and the average value was calculated.

green peach aphids = assay: Test 5: Effect on green peach Aphid; assay type: in vivo; details: Myzus persicae, 24 hours, mortality class, read-out: Insecticidal Activity
Protocol: as §1
Seedlings (having 3 to 4 leaves) of an eggplant grown on a pot were inoculated with green peach aphids and the insects were allowed to grow. The number of the insects was counted. A chemical dilution having a concentration of 100 ppm, prepared in the same manner as described in Test 1, was applied with a spray gun at a rate of 10 ml per pot. Then, the pot was placed in a glass green house. After 24 hours, the number of living insects was counted and the mortality was calculated.
The test was made on three pots, and the average value was calculated. In Table 6, mark "A" indicates a mortality higher than 95%, mark "B" indicates a mortality of 80 to 95%, mark "C" indicates a mortality of 50 to 80%, and mark "D" indicates a mortality lower than 50%.

[2] = tested on: Second-instar and fifth-instar larvae of tobacco cutworm; assay: Test 2: Tobacco Cutworm Larva Dipping Test; assay type: in vivo
Protocol: as §1
A dilution having a chemical concentration of 100 or 20 ppm was prepared in the same manner as described in Test 1.
Second-instar and fifth-instar larvae of tobacco cutworm were dipped in the dilution for 5 seconds, and the excessive dilution was removed by a filter paper. Then, the larvae were set free in a plastic cup and an artificial diet was supplied thereto. The cup was allowed to stand still in a thermostat chamber maintained at 25° C. After 24 hours, the numbers of the killed and living larvae were counted and the mortality was calculated. The test was made on three cups and the result was expressed by an average value.

[3] = tested on: sensitive green rice leafhopper (collected at Chigasaki); assay: Test 3: Effect on Sensitive Green Rice Leafhopper; assay type: in vivo; details: Nephotettix cincticeps, female adults, 24 hours
Protocol: as §1, §2

two-spotted spider mite = assay: Test 6: Effect on Two-Spotted Spider mite adults; assay type: in vivo; details: Tetranychus urticae; 500 ppm; adults; 24 hours; read-out: Mortality (%)
Protocol: as §1
A kidney bean leaf disc perforated with a cork borer (15 mm in diameter) was placed on water-impreganated absorbent cotton (2 cm×2 cm), and 10 adults of two-spotted spider mite were set free. A chemical dilution having a concentration of 500 ppm was applied with an applicator in an amount of 3 ml.
The leaf disc-placed absorbent cotton was placed in a thermostat chamber maintained at 25° C. After 24 hours, the number of killed adults was counted and the mortality was calculated. The test was made on three leaf discs and the average value was calculated.

[4] = tested on: third-instar larvae of diamond back moth; assay: Test 4: Effect on Diamond Back Moth; assay type: in vivo; details: Plutella xylostella, 24 hours
Protocol: as §1
Cabbage leaves were spread in a plastic cup, and 10 third-instar larvae of diamond back moth were set free in the cup.
A chemical dilution having a concentration of 100 or 20 ppm, prepared in the same manner as described in Test 1, was applied from an applicator at a rate of 3 ml per cup.
After scattering of the chemical dilution, the cup was covered, and after 24 hours, the numbers of killed and living larvae were counted and the mortality was calculated. The test was made on three cups and the average value was calculated.

German cockroach = assay: Test 7: Effect on German Cockroach; assay type: in vivo; details: Blattella germanica, male adults, 24 hours, agonized and killed; for mortality at 10 mg/m2: 10 mg/m^2; for mortality at 50 mg/m2: 50 mg/m^2
Protocol: The bottom face of a high Petri dish having a diameter of 9 cm and a height of 9 cm was treated with 50 or 10 mg/m^2 of a test compound and the dish was air-dried. In order to prevent the adults from escaping from the dish, the inner wall of the dish was treated with butter. Then, 10 male adults of German cockroach were set free in each dish, and the dish was placed in a thermostat chamber maintained at 25° C. After 24 hours, the number of agonized and killed adults was counted. The test was made on two dishes and the average value was calculated.

[5] = Test 9: Toxicity Test (acute oral, mice); details: mouse, in vivo, po
Protocol: In the fish toxicity test, the test compound was dissolved in acetone to form a 1% solution, and a predetermined amount of the solution was used. In the mouse toxicity test, the test compound of the present invention was dissolved or suspended in corn oil, and a predetermined amount of the solution or suspension was used.
A predetermined amount of a solution or suspension of a test compound in corn oil was orally administered to male mice having a body weight of 19 to 23 g (0.2 ml per 10 g of the body weight). After 7 days, the number of killed mice was counted and the influences on the mice were examined.

[6] = 20 ppm, second-instar larvae, 24 hours, read-out: Mortality (%) Second-Instar Larvae
[7] = 100 ppm, second-instar larvae, 24 hours, read-out: Mortality (%) Second-Instar Larvae
[8] = topical, 24 h, read-out: Mortality (%) Fifth-Instar Larvae

Structure (SMILES)	mortality at 20 ppm [1] [%]	mortality at 100 ppm [1] [%]	mortality at 100 ppm (green peach aphids) [%]	mortality at 20 ppm [2, 6] [%]	mortality at 100 ppm [2, 7] [%]	mortality at 20 ppm [2, 8] [%]	mortality at 100 ppm [2, 8] [%]	mortality at 20 ppm [3] [%]	mortality at 100 ppm [3] [%]	mortality at 500 ppm (two-spotted spider mite) [%]	mortality at 20 ppm [4] [%]	mortality at 100 ppm [4] [%]	mortality at 10 mg/m2 (German cockroach) [%]	mortality at 50 mg/m2 (German cockroach) [%]	LD50 at 168 h [5] [mg/kg]
CC(C)Oc1ccc(C(C)(C)COCc2ccc(F)c(Oc3ccccc3)c2)cc1 [Compound 41]	100	100	> 95	100	100	100	100	100	100	90	100	100	100	100	
CC(C)COc1ccc(C(C)(C)COCc2ccc(F)c(Oc3ccccc3)c2)cc1 [Compound 45]	100	100	> 95					100	100		80	100	90	100	
CCOc1ccc(C(C)COCc2ccc(F)c(Oc3ccccc3)c2)cc1 (stereo not shown) [Compound 43]	100	100	> 95					100	100				100	100	
CCC(COCc1ccc(F)c(Oc2cccc(Cl)c2)c1)c1ccc(Cl)cc1 (stereo not shown) [Compound 34, 3-(3-Chlorophenoxy)-4-fluorobenzyl 2-(4-chlorophenyl)-butyl ether]			80 to 95												
COc1ccc(C(C)(C)COCc2ccc(F)c(Oc3ccccc3)c2)cc1OC [Compound 56]										100					> 500
COc1ccc(Oc2cc(COCC(C)(C)c3ccc(Cl)cc3)ccc2F)cc1 [Compound 13, 3-(4-Methoxyphenoxy)-4-fluorobenzyl 2-(4-chlorophenyl)-2-methylpropyl ether]	70	100						50	100						> 500
CCOc1ccc(C(C)(C)COCc2ccc(F)c(Oc3ccccc3)c2)cc1Cl [Compound 59]	100	100		100	100	100	100	100	100		100	100	100	100	> 500
CCOc1ccc(C(C)(C)COCc2ccc(F)c(Oc3ccccc3)c2)cc1C [Compound 67]	100	100	> 95	100	100	100	100	100	100	100	100	100	100	100	
CCOc1ccc(C(C)(C)COCc2ccc(F)c(Oc3ccccc3)c2)cc1OC [Compound 64]	100	100	> 95					100	100	100			100	100	
CC(C)(COCc1ccc(F)c(Oc2ccccc2)c1)c1ccc(F)cc1 [Compound 29, 3-Phenoxy-4-fluorobenzyl 2-(4-fluorophenyl)-2-methylpropyl ether]	100	100		100	100	100	100	100	100	100	100	100	100	100	> 500
Cc1ccc2cc(C(C)(C)COCc3ccc(F)c(Oc4ccccc4)c3)ccc2c1 [Compound 44, 3-Phenoxy-4-fluorobenzyl 2-(6-methyl-2-naphthyl)-2-methylpropyl ether]	100	100	> 95					100	100	95			100	100	
CC(C)(COCc1ccc(F)c(Oc2ccccc2)c1)c1ccc(OC(F)F)cc1 [Compound 21, 3-Phenoxy-4-fluorobenzyl 2-(4-difluoromethoxyphenyl)-2-methylpropyl ether]	100	100	> 95	100	100	100	100	100	100	100	100	100	100	100	
CCSc1ccc(C(C)(C)COCc2ccc(F)c(Oc3ccccc3)c2)cc1 [Compound 42, 3-Phenoxy-4-fluorobenzyl 2-(4-ethylthiophenyl)-2-methylpropyl ether]			> 95							100	100	100			
CCC(CC)(COCc1ccc(F)c(Oc2ccccc2)c1)c1ccc(Cl)cc1 [Compound 35, 3-Phenoxy-4-fluorobenzyl 2-(4-chlorophenyl)-2-ethylbutyl ether]	100	100						90	100						> 500
CCOCCOc1ccc(C(C)(C)COCc2ccc(F)c(Oc3ccccc3)c2)cc1 [Compound 39]										100					> 500
CC(C)C(C)(COCc1ccc(F)c(Oc2ccccc2)c1)c1ccc(Cl)cc1 (stereo not shown) [Compound 25, 3-phenoxy-4-fluorobenzyl 2-(4-chlorophenyl)-2,3-dimethylbutyl ether]			80 to 95												
